Like-named read-outs stand apart in the source and are kept apart here.
Experiments:
[1] = target: T1, neurokinin-1 (NK-1) receptor (Homo sapiens, UniProt P25103); assay: NK-1 Binding assay ([125I] Substance P competition, U373 cell membranes); settings: U373 membranes, [125I] Substance P displacement, read-out: NK-1 IC50
T1 construct: a human glioblastoma-astrocytoma cell line that endogenously expresses the neurokinin-1 (NK-1) receptor; endogenous in cells; host or cells: U373 human glioblastoma-astrocytoma cells (membranes)
Protocol: NK-1 Binding assay. U373 cells, a human glioblastoma-astrocytoma cell line that endogenously expresses the neurokinin-1 (NK-1) receptor, were grown in a monolayer culture at 37° C. in 5% CO2 and fed with Minimum Essential Medium (MEM) supplemented with 10% fetal bovine serum. Membranes were prepared as follows: Cells were washed twice with ice-cold phosphate-buffered saline (pH 7.4) and then incubated for 5-10 minutes with ice-cold 10 mM Tris buffer (pH 7.4) containing 5 mM EDTA. Cells were removed from plates, homogenized, and centrifuged at 32,000×g for 20 minutes. The resulting supernatant was discarded, and the pellet resuspended by homogenization in 50 mM Tris buffer (pH 7.4) containing 1 mM EDTA and centrifuged at 32,000×g for 20 minutes. The resulting supernatant was discarded, and the pellet resuspended by homogenization in NK-1 binding assay buffer (50 mM Tris-HCL (pH 7.4), 3 mM MnCl2, 200 μg/ml BSA, 5 μg/ml chymostatin, 40 μg/ml bacitracin and 4 μg/ml leupeptin).
On the day of an experiment the membrane preparation was thawed, homogenized and diluted with NK-1 binding assay buffer to the appropriate concentration. […] Substance P, at a concentration of […], and concentrations of drugs ranging from 10000 to 0.01 nM. Samples were incubated for 30 min at 20° C. then filtered through GF/B glass fiber filters (pretreated with 1% polyethyleneimine and 0.3% Triton X-100) using a Brandel cell harvester. The filters were then washed with 10 ml ice cold 50 mM Tris-HCL (pH 7.4) containing 3 mM MgCl2. […] The amount of radioligand bound in the presence and absence of competitor was analyzed by plotting (-)log drug concentration versus the amount of radioligand specifically bound. The midpoint of the displacement curve (IC50, nM), signifies the potency.

[2] = target: T2, human serotonin transporters (Homo sapiens, UniProt P31645); assay: Serotonin transporter binding assay ([3H]-citalopram competition, HEK-hSERT cell membranes)
T2 construct: expressed in transfected cells
Protocol: Serotonin transporter binding assay. HEK-293 cells that stably express human serotonin transporters (HEK-hSERT cells) were grown at 37° C. in 5% CO2 as a monolayer in medium consisting of EMEM supplemented with 10% fetal bovine serum and G418 sulfate (500 μg/ml). To prepare membranes for radioligand binding experiments, cells were rinsed twice with phosphate-buffered saline (138 mM NaCl, 4.1 mM KCl, 5.1 mM Na2PO4, 1.5 mM KH2PO4, 11.1 mM glucose, pH 7.4). Cells were transferred from plates to polypropylene tubes (16×100 mm), centrifuged at 1,200×g for 5 min and were frozen at −80° C. until assay. Following centrifugation, pellets were resuspended by homogenization in buffer consisting of 50 mM Tris (pH 7.7 at 25° C.), 120 mM NaCl and 5 mM KCl and then centrifuged at 32,000×g for 10 min. Following centrifugation, supernatants were discarded and pellets were resuspended in buffer consisting of 50 mM Tris (pH 7.4 at 25° C.), 150 mM NaCl and 5 mM KCl. Membrane homogenates (200 μl/plate) were incubated with 1 nM [^3H]-citalopram (specific activity=85 Ci/mmol) and increasing concentrations of test compounds for 1 hr at 25° C. in a total volume of 250 μl. The assay buffer consisted of 50 mM Tris (pH 7.4 at 25° C.), 120 mM NaCl and 5 mM KCl (pH 7.4 with conc. HCl). Plates were incubated for 1 hr at 25° C., then filtered through 0.5% PEI treated Whatman GF/B filters using a Brandel cell harvester. Filters were washed three times with 3 ml of ice-cold tris wash buffer. Non-specific binding was defined with 10 μM fluoxetine. Amount of radioligand bound in the presence and absence of competitor was analyzed by plotting (-)log drug concentration versus the amount of radioligand specifically bound. The midpoint of the displacement curve (IC50, nM), signifies the potency. Ki values can be calculated using the method of Cheng and Prusoff (Cheng and Prusoff, BiochemicalPharmacology, Vol 22, pp. 3099-3108, Pergamon Press (1973)).

[3] = Table 1, HEK-hSERT membranes, [3H]-citalopram displacement, read-out: SERT IC50
[4] = Table 2, HEK-hSERT membranes, [3H]-citalopram displacement, read-out: SERT IC50

T1 sequence (P25103 whole entry): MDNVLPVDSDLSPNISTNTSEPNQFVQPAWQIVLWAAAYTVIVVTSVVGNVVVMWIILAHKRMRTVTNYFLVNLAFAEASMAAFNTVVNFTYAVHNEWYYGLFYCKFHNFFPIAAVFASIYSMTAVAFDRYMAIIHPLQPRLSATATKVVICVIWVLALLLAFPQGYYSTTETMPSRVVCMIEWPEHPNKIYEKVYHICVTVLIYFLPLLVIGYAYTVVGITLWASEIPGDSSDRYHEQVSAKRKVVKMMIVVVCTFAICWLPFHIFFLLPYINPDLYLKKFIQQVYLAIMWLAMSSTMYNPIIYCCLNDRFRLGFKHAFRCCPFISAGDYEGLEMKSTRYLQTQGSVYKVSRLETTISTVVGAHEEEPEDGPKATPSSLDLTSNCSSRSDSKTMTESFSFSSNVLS
T2 sequence (P31645 whole entry): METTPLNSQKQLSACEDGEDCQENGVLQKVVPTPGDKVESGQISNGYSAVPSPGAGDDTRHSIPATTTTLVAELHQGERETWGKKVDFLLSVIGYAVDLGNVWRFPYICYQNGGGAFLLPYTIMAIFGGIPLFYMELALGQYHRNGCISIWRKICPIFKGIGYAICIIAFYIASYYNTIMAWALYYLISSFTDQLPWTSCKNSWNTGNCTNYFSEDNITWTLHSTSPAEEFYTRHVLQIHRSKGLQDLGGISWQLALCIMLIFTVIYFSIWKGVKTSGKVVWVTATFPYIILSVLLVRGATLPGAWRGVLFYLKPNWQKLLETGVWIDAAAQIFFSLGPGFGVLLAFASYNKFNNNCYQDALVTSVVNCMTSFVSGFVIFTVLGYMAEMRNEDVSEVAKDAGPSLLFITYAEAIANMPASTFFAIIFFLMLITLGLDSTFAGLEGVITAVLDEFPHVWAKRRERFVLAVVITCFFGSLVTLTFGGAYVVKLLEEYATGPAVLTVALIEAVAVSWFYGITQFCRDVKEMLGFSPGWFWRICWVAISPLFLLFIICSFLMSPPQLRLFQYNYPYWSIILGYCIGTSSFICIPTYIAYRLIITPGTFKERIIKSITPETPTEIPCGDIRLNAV

CSc1ccc(-c2cc(COCC3(c4ccccc4)CCNCC3)cc(C(F)(F)F)c2)cc1
IC50 ([1]; Table 1): 0.01 to 100 nM | IC50 [2, 3]: 0.01 to 100 nM

COc1cc(-c2cc(COCC3(c4ccccc4)CCN(C)CC3)cc(C(F)(F)F)c2)ccc1C#N
IC50 ([1]; Table 2): 0.01 to 100 nM | IC50 [2]: 0.01 to 100 nM

Oc1cc(COCC2(c3ccccc3)CCNCC2)cc(-c2ccc(F)cc2)c1
IC50 ([1]; Table 2): > 300 nM | IC50 [2, 4]: 0.01 to 100 nM

COc1ccc(-c2cc(COCC3(c4ccccc4)CCN(C)CC3)cc(C(F)(F)F)c2)cc1C
IC50 ([1]; Table 2): 0.01 to 100 nM | IC50 [2]: 0.01 to 100 nM

N#Cc1ccc(-c2cc(COCC3(c4ccccc4)CCNCC3)cc(C(F)(F)F)c2)cc1F
IC50 ([1]; Table 2): 0.01 to 100 nM | IC50 [2, 4]: 0.01 to 100 nM

FC(F)(F)c1cc(COCC2(c3ccccc3)CCNCC2)cc(-c2ccccc2)c1
IC50 ([1]; Table 1): 0.01 to 100 nM | IC50 [2, 3]: 0.01 to 100 nM

FC(F)(F)c1cc(COCC2(c3ccccc3)CCNCC2)cc(-c2ccc(Cl)nc2Cl)c1
IC50 ([1]; Table 1): 0.01 to 100 nM | IC50 [2, 3]: 0.01 to 100 nM

CCS(=O)(=O)c1ccc(-c2cc(COCC3(c4ccccc4)CCNCC3)cc(C(F)(F)F)c2)cc1
IC50 ([1]; Table 2): 100 to 300 nM | IC50 [2, 4]: 0.01 to 100 nM

COc1ccc(-c2nnn(C)n2)cc1COCC1(c2ccccc2)CCNCC1
IC50 ([1]; Table 1): > 300 nM | IC50 [2, 3]: 100 to 300 nM

FC(F)(F)c1cc(COCC2(c3ccccc3)CCNCC2)cc(-c2ccccc2Cl)c1
IC50 ([1]; Table 1): 0.01 to 100 nM | IC50 [2, 3]: 0.01 to 100 nM

FC(F)(F)c1cc(COCC2(c3ccccc3)CCNCC2)cc(-c2ccc(C3CCCCC3)cc2)c1
IC50 ([1]; Table 2): > 300 nM | IC50 [2, 4]: 100 to 300 nM

CCCOc1cccc(-c2cc(COCC3(c4ccccc4)CCNCC3)cc(C(F)(F)F)c2)c1
IC50 ([1]; Table 2): > 300 nM | IC50 [2, 4]: 100 to 300 nM

COc1ncc(-c2cc(COCC3(c4ccccc4)CCNCC3)cc(C(F)(F)F)c2)c(OC)n1
IC50 ([1]; Table 1): 100 to 300 nM | IC50 [2, 3]: 0.01 to 100 nM

Fc1cccc(-c2cc(COCC3(c4ccccc4)CCNCC3)cc(C(F)(F)F)c2)c1F
IC50 ([1]; Table 2): 0.01 to 100 nM | IC50 [2, 4]: 0.01 to 100 nM

Oc1cccc(-c2cc(COCC3(c4ccccc4)CCNCC3)cc(C(F)(F)F)c2)c1
IC50 ([1]; Table 1): 0.01 to 100 nM | IC50 [2, 3]: 0.01 to 100 nM

COc1c(C)cc(-c2cc(COCC3(c4ccccc4)CCNCC3)cc(C(F)(F)F)c2)cc1C
IC50 ([1]; Table 1): 100 to 300 nM | IC50 [2, 3]: 100 to 300 nM

CN1CCC(COCc2cc(-c3ccc(C#N)cc3)cc(C(F)(F)F)c2)(c2ccc(Br)cc2)CC1
IC50 ([1]; Table 2): 0.01 to 100 nM | IC50 [2]: 0.01 to 100 nM

COc1ccccc1-c1cc(COCC2(c3ccccc3)CCNCC2)cc(C(F)(F)F)c1
IC50 ([1]; Table 1): 0.01 to 100 nM | IC50 [2, 3]: 0.01 to 100 nM

CC(OCC1(c2ccccc2)CCN(C)CC1)c1cc(-c2ccc(C#N)cc2)cc(C(F)(F)F)c1 (stereo not shown)
IC50 ([1]; Table 1): 0.01 to 100 nM | IC50 [2]: 0.01 to 100 nM

FC(F)(F)c1ccc(-c2cc(COCC3(c4ccccc4)CCNCC3)cc(C(F)(F)F)c2)cc1
IC50 ([1]; Table 1): 0.01 to 100 nM | IC50 [2, 3]: 0.01 to 100 nM

FC(F)(F)Oc1ccc(-c2cc(COCC3(c4ccccc4)CCNCC3)cc(C(F)(F)F)c2)cc1
IC50 ([1]; Table 1): 0.01 to 100 nM | IC50 [2, 3]: 0.01 to 100 nM

N#Cc1ccc(-c2cc(COCC3(c4ccccc4)CCNCC3)cc(C(=O)N3CCCCC3)c2)cc1
IC50 ([1]; Table 2): > 300 nM | IC50 [2, 4]: 0.01 to 100 nM

FC(F)(F)c1cc(COCC2(c3ccccc3)CCNCC2)cc(-c2ccccc2Oc2ccccc2)c1
IC50 ([1]; Table 1): > 300 nM | IC50 [2, 3]: 100 to 300 nM

N#Cc1ccc(-c2cc(COCC3(c4ccc(F)cc4)CCNCC3)cc(C(F)(F)F)c2)cc1
IC50 ([1]; Table 1): 0.01 to 100 nM | IC50 [2, 3]: 0.01 to 100 nM

Fc1ccc(-c2cc(COCC3(c4ccccc4)CCNCC3)cc(C(F)(F)F)c2)c(F)c1
IC50 ([1]; Table 1): 0.01 to 100 nM | IC50 [2, 3]: 0.01 to 100 nM

FC(F)(F)c1cc(COCC2(c3ccccc3)CCNCC2)cc(-c2ccc3ccccc3c2)c1
IC50 ([1]; Table 1): 100 to 300 nM | IC50 [2, 3]: 100 to 300 nM

CN1CCC(COCc2cc(-c3cc(F)c(C#N)c(F)c3)cc(C(F)(F)F)c2)(c2ccccc2)CC1
IC50 ([1]; Table 2): 0.01 to 100 nM | IC50 [2]: 0.01 to 100 nM

FC(F)(F)c1cc(COCC2(c3ccccc3)CCNCC2)cc(-c2ccccc2C(F)(F)F)c1
IC50 ([1]; Table 1): > 300 nM | IC50 [2, 3]: 100 to 300 nM

Cc1cccc(-c2cc(COCC3(c4ccccc4)CCNCC3)cc(C(F)(F)F)c2)c1C
IC50 ([1]; Table 2): 100 to 300 nM | IC50 [2, 4]: 0.01 to 100 nM

N#Cc1ccc(-c2cc(COCC3(c4cccc(Br)c4)CCNCC3)cc(C(F)(F)F)c2)cc1
IC50 ([1]; Table 2): 0.01 to 100 nM | IC50 [2, 4]: 0.01 to 100 nM

COc1cc(F)c(-c2cc(COCC3(c4ccccc4)CCN(C)CC3)cc(C(F)(F)F)c2)cc1F
IC50 ([1]; Table 2): 0.01 to 100 nM | IC50 [2]: 0.01 to 100 nM

CN1CCC(COCc2cc(-c3ccc(C#N)cc3)cc(C(F)(F)F)c2)(c2ccc(C#N)cc2)CC1
IC50 ([1]; Table 2): 0.01 to 100 nM | IC50 [2]: 0.01 to 100 nM

COc1cccc(C2(COCc3cc(-c4ccc(C#N)cc4)cc(C(F)(F)F)c3)CCN(C)CC2)c1
IC50 ([1]; Table 2): 0.01 to 100 nM | IC50 [2]: 0.01 to 100 nM

Cc1cc(-c2cc(COCC3(c4cccnc4)CCN(C)CC3)cc(C(F)(F)F)c2)ccc1C#N
IC50 ([1]; Table 2): 0.01 to 100 nM | IC50 [2]: 0.01 to 100 nM

FC(F)(F)c1cc(COCC2(c3ccccc3)CCNCC2)cc(-c2ccco2)c1
IC50 ([1]; Table 1): 0.01 to 100 nM | IC50 [2, 3]: 0.01 to 100 nM

FC(F)(F)c1cc(COCC2(c3ccccc3)CCNCC2)cc(-c2ccccn2)c1
IC50 ([1]; Table 1): 0.01 to 100 nM | IC50 [2, 3]: 0.01 to 100 nM

FC(F)(F)c1cc(COCC2(c3ccccc3)CCNCC2)cc(-c2c(Cl)cccc2Cl)c1
IC50 ([1]; Table 1): 100 to 300 nM | IC50 [2, 3]: 0.01 to 100 nM

CC(=O)c1ccccc1-c1cc(COCC2(c3ccccc3)CCNCC2)cc(C(F)(F)F)c1
IC50 ([1]; Table 2): > 300 nM | IC50 [2, 4]: 100 to 300 nM

FC(F)(F)c1cc(COCC2(c3ccccc3)CCNCC2)cc(-c2ccc(N3CCOCC3)nc2)c1
IC50 ([1]; Table 1): > 300 nM | IC50 [2, 3]: 0.01 to 100 nM

Fc1ccc(-c2cc(COCC3(c4ccccc4)CCNCC3)cc(C(F)(F)F)c2)cc1
IC50 ([1]; Table 1): 0.01 to 100 nM | IC50 [2, 3]: 0.01 to 100 nM

N#Cc1ccc(-c2cc(COCC3(c4ccccc4)CCNCC3)cc(C(F)(F)F)c2)cc1Cl
IC50 ([1]; Table 2): 0.01 to 100 nM | IC50 [2, 4]: 0.01 to 100 nM

Cc1cccc(-c2cc(COCC3(c4ccccc4)CCNCC3)cc(C(F)(F)F)c2)c1
IC50 ([1]; Table 1): 0.01 to 100 nM | IC50 [2, 3]: 0.01 to 100 nM

CN1CCC(COCc2cc(-c3ccc(Cl)cc3)cc(C(F)(F)F)c2)(c2ccccc2)CC1
IC50 ([1]; Table 2): 0.01 to 100 nM | IC50 [2]: 0.01 to 100 nM

FC(F)(F)c1cc(COCC2(c3ccccc3)CCNCC2)cc(-c2cccc(-c3ccccc3)c2)c1
IC50 ([1]; Table 1): 100 to 300 nM | IC50 [2, 3]: 100 to 300 nM

Reference: patent US20070249607A1, “NK-1 AND SEROTONIN TRANSPORTER INHIBITORS” (Bristol-Myers Squibb Company, priority 2006, published 2007)
